Data taken from patent US20260028390A1, “ALPHA1-ANTITRYPSIN FOR USE IN THE TREATMENT OF DISEASES OR DISORDERS OF THE NERVOUS SYSTEM SUCH AS CHRONIC INFLAMMATORY DEMYELINATING POLYNEUROPATHY” (Ageronix SA, priority 2022, published 2026).

System: HMC3-MHCII^Luc cells
Experiment: RNAseq differential gene expression / GSEA in AAT-treated resting and IFNγ-activated microglia
Type: cell-based, human
Protocol: • A) Human microglial HMC3-MHCII^Luc cells were plated at day 0, presented IFNγ at day 1 until day 2 and measurement of the luciferase activity and cell viability were done at day 4. • B) AATs were applied from day 0 to day 4 on HMC3-MHCII^Luc cells. Activation was measured by the activity of MHCII-driven luciferase and represented as percentage of IFNγ control for all conditions. All conditions were performed in triplicates, error bars represent standard deviation. • C) Bulk RNA extraction was performed on the same HMC3-MHCII^Luc cultures. Quality control (QC) were applied to RNA before sequencing. QC of the sequencing was done prior to mapping on the human genome. Mapped reads were counted, and differential gene expression was measured between the conditions (see Table 1-10). (FIGS. 3A, 3B and 3C)
RNAseq data from plasma-derived and recombinant AATs were pooled, normalized and analyzed through Gene Set Enrichment Analysis (GSEA) (https://www.gsea-msigdb.org/gsea/index.jsp; Subramanian, A., et al. Proc. Natl. Acad. Sci. USA, 102 (43): 15545-15550, 2005.). […] Importantly, both the IFNγ and inflammatory responses were dampened by AAT. However, the downregulation of the inflammatory response genes in (C) was just under significance.
Tables of genes related to antigen presentation (Table 1), cytokine signaling (Table 2), interferon signaling (Table 3) and complement activation (Table 4). Inflammatory top gene (FC>2; p-value<0.05; left column), were defined by differential expression between untreated and IFNγ-treated cells (inflammation; middle column).
HMC3-MHCII^Luc and HMC3-MHCII^Luc; Ubi^AAT (endogenous AAT) cell lines were seeded into 96-well plates at a density of approximately 2500 cells/well. HMC3-MHCII^Luc cell line was plated and was added plasma-derived AAT and recombinant AATs (produced in CHO cells, AAT 1 and AAT 2) 3h later and at ranged concentration (1; 10 or 25 μM). 24h after, still in the presence of exogenous or endogenous AAT, microglial activation was induced with a 24h-long IFNγ presentation (10 ng/ml). IFNγ was then removed and both HMC3-MHCII^Luc and HMC3-MHCII^Luc; Ubi^AAT cells were cultured for 48h in exogenous or endogenous presence of AAT before cell cultures were beeing assessed for cell viability and activation (See FIGS. 3A, 3B, 3C and 4A,4B, 4C).
RNA samples from plasma-derived AAT and recombinant AAT Nr. 2 were checked for quality (2100 Bioanalyzer, Agilent) and libraries prepared with Truseq RNA Library Kit (Illumina, RS-122-2001). Libraries were sequenced (HiSeq 4000, Illumina) controlled for the quality of sequencing (FastQC), mapped on the human genome (STAR v.2.7.0f; UCSC hg38), reads were counted (HTSeq v0.9.1) and the differential expression analysis was performed with the R/Bioconductor package (edgeR 1.30.1.).

[1] = Inflammation + AAT, AD risk gene
[2] = Inflammation + AAT, MCT*/PN risk gene
[3] = Inflammation + AAT, MS risk gene
[4] = Inflammation + AAT, PD risk gene
[5] = Regulated in AAT (resting condition), antigen presentation
[6] = Regulated in AAT (resting condition), cytokine signalling
[7] = Regulated in AAT (resting condition), interferon signaling
[8] = head prints AAT (right block), GBS risk gene
[9] = inflammation + AAT, antigen presentation
[10] = inflammation + AAT, complement activation
[11] = inflammation + AAT, cytokine signalling
[12] = inflammation + AAT, interferon signaling

Substance: alpha1-antitrypsin (AAT) protein
- IGFBP2 expression FC (FC inflammation + AAT, M2 gene): 1.34
- IL1R1 expression FC (FC inflammation + AAT, M2 gene): 1.18
- ITGA11 expression FC (FC inflammation + AAT, M2 gene): 1.54
- KANK2 expression FC (FC inflammation + AAT, M2 gene): 1.25
- KDM2B expression FC (FC inflammation + AAT, M2 gene): 1.17
- KIAA1549L expression FC (FC inflammation + AAT, M2 gene): 1.44
- LDHA expression FC (FC inflammation + AAT, M2 gene): 1.21
- LOXL2 expression FC (FC inflammation + AAT, M2 gene): 1.25
- MBOAT7 expression FC (FC inflammation + AAT, M2 gene): 1.37
- METRN expression FC (FC inflammation + AAT, M2 gene): 1.64
- MIF expression FC (FC inflammation + AAT, M2 gene): 1.72
- MMP1 expression FC (FC inflammation + AAT, M2 gene): 2.39
- MXRA8 expression FC (FC inflammation + AAT, M2 gene): 1.49
- OLFML2B expression FC (FC inflammation + AAT, M2 gene): 1.44
- PAPPA expression FC (FC inflammation + AAT, M2 gene): 1.31
- PLEC expression FC (FC inflammation + AAT, M2 gene): 1.54
- PLLP expression FC (FC inflammation + AAT, M2 gene): 1.46
- PREX1 expression FC (FC inflammation + AAT, M2 gene): 1.28
- PRSS23 expression FC (FC inflammation + AAT, M2 gene): 1.16
- PTPRS expression FC (FC inflammation + AAT, M2 gene): 1.23
- RASAL1 expression FC (FC inflammation + AAT, M2 gene): 1.45
- SEMA3B expression FC (FC inflammation + AAT, M2 gene): 1.39
- SERPINH1 expression FC (FC inflammation + AAT, M2 gene): 1.20
- SH3PXD2B expression FC (FC inflammation + AAT, M2 gene): 1.19
- SLC16A3 expression FC (FC inflammation + AAT, M2 gene): 1.65
- STC2 expression FC (FC inflammation + AAT, M2 gene): 1.32
- TBCD expression FC (FC inflammation + AAT, M2 gene): 1.26
- TCEAL2 expression FC (FC inflammation + AAT, M2 gene): 1.30
- TGFB1I1 expression FC (FC inflammation + AAT, M2 gene): 1.26
- TGFBI expression FC (FC inflammation + AAT, M2 gene): 1.18
- THBS1 expression FC (FC inflammation + AAT, M2 gene): 1.34
- TNFRSF1B expression FC (FC inflammation + AAT, M2 gene): 1.23
- ZIC2 expression FC (FC inflammation + AAT, M2 gene): 2.77
- ZNF319 expression FC (FC inflammation + AAT, M2 gene): 1.25
- ABCA7 expression FC [1]: 1.36
- APOE expression FC [1]: 1.55
- BIN1 expression FC [1]: 1.43
- PICALM expression FC [1]: −1.29
- PSEN2 expression FC [1]: 1.28
- TREM2 expression FC [1]: 1.47
- CCT5 expression FC [2]: −1.13
- DNAJB2* expression FC [2]: 1.20
- DST expression FC [2]: 1.30
- GARS* expression FC [2]: −1.24
- GDAP1* expression FC [2]: −1.24
- HSPB1* expression FC [2]: 1.56
- IGHMBP2* expression FC [2]: 1.21
- INF2 expression FC [2]: 1.35
- KARS* expression FC [2]: −1.13
- LMNA* expression FC [2]: 1.39
- MED25* expression FC [2]: 1.38
- NDRG1* expression FC [2]: 1.30
- SCN9A expression FC [2]: −1.66
- SEPT9 expression FC [2]: 1.29
- TFG* expression FC [2]: −1.19
- TUBB3 expression FC [2]: 1.44
- TRPV4* expression FC (Inflammation + AAT, MCT*/PN risk gene, first TRPV4* line): 1.72
- TRPV4* expression FC (Inflammation + AAT, MCT*/PN risk gene, second TRPV4* line): 1.40
- AGAP2 expression FC [3]: 1.45
- CYP24A1 expression FC [3]: 1.34
- DKKL1 expression FC [3]: 2.12
- HLA-A expression FC [3]: 1.57
- HLA-DRB1 expression FC [3]: 1.51
- MPHOSPH9 expression FC [3]: −1.19
- NFKBIZ expression FC [3]: −1.37
- SLC30A7 expression FC [3]: −1.56
- ZMIZ1 expression FC [3]: 1.47
- ATP13A2 expression FC [4]: 1.49
- DNAJC6 expression FC [4]: −1.12
- GBA expression FC [4]: 1.15
- LRP10 expression FC [4]: 1.23
- PINK1 expression FC [4]: 1.20
- PLA2G6 expression FC [4]: 1.37
- SYNJ1 expression FC [4]: −1.23
- UCHL1 expression FC [4]: −1.10
- NFATC1 expression FC [5]: 1.44
- TRAF6 expression FC [5]: −1.26
- PLAU expression FC (Regulated in AAT (resting condition), complement activation): −1.27
- BIRC2 expression FC [6]: −1.53
- CEBPG expression FC [6]: −1.31
- MYD88 expression FC [6]: −1.35
- RASGRF2 expression FC [6]: −1.45
- RIPK2 expression FC [6]: −1.30
- SPTBN1 expression FC [6]: −1.21
- STAT1 expression FC [6]: −1.47
- TM7SF3 expression FC [6]: −1.18
- TNFSF9 expression FC [6]: 1.26
- TRAF6 expression FC [6]: −1.26
- IRF2 expression FC [7]: −1.17
- STAT1 expression FC [7]: −1.47
- FOS expression FC AAT [8]: −1.54
- GUK1 expression FC AAT [8]: 1.31
- LY96 expression FC AAT [8]: −2.31
- MARCKS expression FC AAT [8]: −1.84
- NFIL3 expression FC AAT [8]: −1.22
- ZNF12 expression FC AAT [8]: −1.23
- genes related to the unfolded protein response (UPR) pathway and cell-survival (GSEA) (human microglial cells, AAT treatment): upregulation
- CALR expression FC [9]: 1.35
- CTSA expression FC [9]: 1.17
- CTSD expression FC [9]: 1.47
- HLA-DOB expression FC [9]: −4.49
- HLA-DPB1 expression FC [9]: 1.31
- HLA-DRA expression FC [9]: −2.22
- IL1B expression FC [9]: −2.07
- MRC2 expression FC [9]: 1.47
- NFATC2 expression FC [9]: 1.63
- PSMB9 expression FC [9]: −1.23
- PYCARD expression FC [9]: 2.20
- SOCS3 expression FC [9]: 1.20
- TAPBP expression FC [9]: 1.23
- C3AR1 expression FC [10]: −1.50
- ITGAX expression FC [10]: 1.41
- PLAUR expression FC [10]: 1.32
- SERPINB2 expression FC [10]: −4.63
- ANXA1 expression FC [11]: −1.33
- ATF3 expression FC [11]: −1.26
- CX3CL1 expression FC [11]: 1.61
- CXCL1 expression FC [11]: −2.09
- CXCL5 expression FC [11]: −2.15
- DUSP6 expression FC [11]: −1.26
- FGF2 expression FC [11]: −1.57
- FSCN1 expression FC [11]: 1.48
- HBEGF expression FC [11]: −1.30
- IL1B expression FC [11]: −2.07
- IL1R1 expression FC [11]: 1.18
- IL18 expression FC [11]: −1.75
- IL27RA expression FC [11]: 1.36
- IL411 expression FC [11]: 1.95
- JAK3 expression FC [11]: 1.43
- MAP2K2 expression FC [11]: 1.51
- MAP2K3 expression FC [11]: 1.37
- MAPK11 expression FC [11]: 1.44
- MAPK12 expression FC [11]: 1.33
- MAPK13 expression FC [11]: 1.23
- NFKBIZ expression FC [11]: −1.37
- PSMB9 expression FC [11]: −1.23
- RASAL1 expression FC [11]: 1.52
- SOCS3 expression FC [11]: 1.20
- STAT5A expression FC [11]: 1.45
- TNFRSF9 expression FC [11]: −2.35
- TRAF2 expression FC [11]: 1.42
- CD44 expression FC [12]: 1.14
- FLNB expression FC [12]: −1.20
- HLA-DPB1 expression FC [12]: 1.31
- HLA-DRA expression FC [12]: −2.22
- IFIT1 expression FC [12]: −1.78
- IFNAR1 expression FC [12]: −1.63
- IRF3 expression FC [12]: 1.56
- MX1 expression FC [12]: −2.00
- MX2 expression FC [12]: −2.14
- SOCS3 expression FC [12]: 1.20
- USP18 expression FC [12]: −1.76
- inflammatory top genes found affected by AAT treatment (top genes FC>2, p-value<0.05, significantly and oppositely regulated): ~35%
